SMILES strings stand for the structures. Counter-ions that a name gives are not always drawn.

The test system of the assay is Acinetobacter baumannii ATCC 17961. Kind of assay: Antimicrobial susceptibility testing: 90% growth inhibitory concentration (IC90) determination. The assay is classed as cell-based. The note with it: ATCC17961, Acinetobacter baumannii ATCC 17961, Iso-Sensitest broth, read-out: ATCC 17961 IC90. In short, it runs like this:
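Growth was followed kinetically by OD600 at 20-min intervals for 16 h at 35±2 °C, with ~5×10^5 CFU/ml in Iso-Sensitest broth. Compounds were tested as twofold dilutions (e.g. 50–0.097 μM final). The concentration giving 90% inhibition of log-phase growth was reported.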
What is called IC90 is the concentration needed for an effect of 90%. With `C#CCn1cc(-c2cnc(C(=O)Nc3ccc(S(C)(=O)=NCCCN)c(C)c3)n2C)c(C(F)(F)F)n1` (stereo not drawn) [Example 342, N-[4-[N-(3-aminopropyl)-S-methyl-sulfonimidoyl]-3-methyl-phenyl]-1-methyl-5-[1-prop-2-ynyl-3-(trifluoromethyl)pyrazol-4-yl]imidazole-2-carboxamide; formic acid], the IC90 is 442 nM.

For the compound `Cn1c(-c2cn(CC#N)nc2C(F)(F)F)cnc1C(=O)Nc1ccc(C(=O)N2CCN(C(=O)NCC3(O)CNC3)CC2)c(Cl)c1` [Example 343, 4-[2-chloro-4-[[5-[1-(cyanomethyl)-3-(trifluoromethyl)pyrazol-4-yl]-1-methyl-imidazole-2-carbonyl]amino]benzoyl]-N-[(3-hydroxyazetidin-3-yl)methyl]piperazine-1-carboxamide; formic acid], the IC90 came to 442 nM.

As to `Cn1c(-c2cn(C3CC3(F)F)nc2C(F)(F)F)cnc1C(=O)Nc1ccc(C(=O)NC2(C)CCNCC2)c(Cl)c1` (stereo not drawn) [Example 344, N-(3-chloro-4-((4-methylpiperidin-4-yl)carbamoyl)phenyl)-5-(1-(2,2-difluorocyclopropyl)-3-(trifluoromethyl)-1H-pyrazol-4-yl)-1-methyl-1H-imidazole-2-carboxamide formate], the IC90 is 443 nM.

For `Cn1c(-c2cn(CC#N)nc2C(F)(F)F)cnc1C(=O)Nc1ccc(C(=O)NCCCCN)c(Cl)c1` [Example 345, N-(4-((4-aminobutyl)carbamoyl)-3-chlorophenyl)-5-(1-(cyanomethyl)-3-(trifluoromethyl)-1H-pyrazol-4-yl)-1-methyl-1H-imidazole-2-carboxamide tris(2,2,2-trifluoroacetate)], the concentration for an effect of 90% (IC90) came to 444 nM.

As to `Cn1c(-c2cn(C3CC3)nc2C(F)(F)F)cnc1C(=O)Nc1ccc(C(=O)N2CCN(C(=O)[C@H]3CCN3)CC2)c(Cl)c1` [Example 348, (R)-N-(4-(4-(azetidine-2-carbonyl)piperazine-1-carbonyl)-3-chlorophenyl)-5-(1-cyclopropyl-3-(trifluoromethyl)-1H-pyrazol-4-yl)-1-methyl-1H-imidazole-2-carboxamide hydrochloride], the IC90 is 447 nM.

Consider `Cn1c(-c2cn(C3CC3)nc2C(F)(F)F)cnc1C(=O)Nc1ccc(C(=O)N2CCN(C(=O)N3CC[C@@H](N)C3)CC2)c(Cl)c1` [Example 349, (R)-N-(4-(4-(3-aminopyrrolidine-1-carbonyl)piperazine-1-carbonyl)-3-chlorophenyl)-5-(1-cyclopropyl-3-(trifluoromethyl)-1H-pyrazol-4-yl)-1-methyl-1H-imidazole-2-carboxamide formate], for which the concentration for an effect of 90% (IC90) was 449 nM.

As for `Cn1c(-c2cn(CC#N)nc2C(F)(F)F)cnc1C(=O)Nc1ccc(C(=O)N[C@H]2CC[C@@H](N)CC2)c(Cl)c1` [Example 351, N-[4-[(4-aminocyclohexyl)carbamoyl]-3-chlorophenyl]-5-[1-(cyanomethyl)-3-(trifluoromethyl)pyrazol-4-yl]-1-methylimidazole-2-carboxamide;2,2,2-trifluoroacetic acid], the IC90 was 453 nM.

As for `Cn1c(-c2cn(CCC3CC3)nc2C(F)(F)F)cnc1C(=O)Nc1ccc(C(=O)N2CCN(C(=O)C3CCNCC3)CC2)c(Cl)c1` [Example 352, N-(3-chloro-4-(4-(piperidine-4-carbonyl)piperazine-1-carbonyl)phenyl)-5-(1-(2-cyclopropylethyl)-3-(trifluoromethyl)-1H-pyrazol-4-yl)-1-methyl-1H-imidazole-2-carboxamide hydrochloride], the IC90 was 458 nM.

Take `Cc1cc(NC(=O)c2ncc(-c3cn(CC(F)F)nc3C(F)(F)F)n2C)ccc1S(C)(=O)=NCCCN` (stereo not drawn) [Example 353, N-[4-[N-(3-aminopropyl)-S-methyl-sulfonimidoyl]-3-methyl-phenyl]-5-[1-(2,2-difluoroethyl)-3-(trifluoromethyl)pyrazol-4-yl]-1-methyl-imidazole-2-carboxamide; formic acid]: the concentration for an effect of 90% (IC90) was found to be 462 nM.

Values taken from patent publication US11390604B2 (Hoffmann-La Roche Inc., priority 2019, dated 2022).
